The values below come from patent US20070134731A1, “PROTEOMICS BASED METHOD FOR TOXICOLOGY TESTING” (priority 2002, published 2007).

Data set [1] relates to rats. Nature of the data set: toxicant exposure of rats; modified proteins isolated from serum (immunoaffinity, 2D gel electrophoresis, LC/MS). It counts as in vivo. Conditions: for modified proteins found in serum of treated animals, not found in the control group: rat serum, CCl4 0.1 and 1.0 mL/kg or ozone 0.8 and 2.0 ppm, specimens at 0-24 hours, anti-nitrotyrosine, chlorotyrosine, methionine sulfoxide resins, LC/MS. Here is the method: Experimental groups consisted of three experimental and two control animals at each dose and specimens were collected at zero, one, two, four, eight, sixteen and twenty-four hours following ozone administration. In another experimental series, CCl4 was administered at a level of 0.1 and 1.0 mL/kg to rats to induce liver damage, and specimens were collected at time points as described above. […] Therefore, these high abundance proteins are preferably eliminated from serum samples prior to further processing.
In this experimental series, the specimens were purified by passing them over affinity resins containing antibodies against whole rat serum proteins and collecting the eluate. This purification methodology was effective in removing a significant amount of the high abundant serum proteins, which typically have a molecular weight in the range of 49-80 kiloDalton. […] Therefore, it was determined that concentration of the sample could be carried out very effectively by a process of molecular weight sieving which retained low molecular weight proteins (typically 50 kiloDalton and below) and excluded high molecular weight proteins. Such sieving was effectively accomplished utilizing a Superdex 75 column with a sample loading volume of 10% of the bed volume. Processes of this type have the advantage of being cheaper and faster than affirity resin based processes.
Once the concentration of high abundance serum proteins was decreased, the tissue proteins were purified from serum by immunoaffinity resins using antibodies to nitrotyrosine, chlorothyosine and methionine sulfoxide. […] Samples of interest were excised from the gel and those with sufficient concentration were analyzed by LC/MS.

The test system of data set [2] is rats. As to conditions: in rats; cited from earlier work.

SMILES strings stand for the structures. “Also recorded” adds a separate entry of the source.

As to `ClC(Cl)(Cl)Cl` [CCl4, carbon tetrachloride], in data set [1], the “modified proteins found in serum of treated animals, not found in the control group” value is “three out of the seven peptides from the CCl4 group were associated with mitochondria; also recorded: peroxiredoxin”. Further, the organ toxicity result in data set [2] is listed as “known hepatotoxicant”.
Take `O=C1CCC(=O)N1c1cc(Cl)cc(Cl)c1` [NDPS, N-(3,5-dichlorophenyl) succinimide]: the organ toxicity result in data set [2] is on record as “toxic to the kidney”.
Regarding `O=[O+][O-]` [ozone], the “modified proteins found in serum of treated animals, not found in the control group” value in data set [1] is given as “four proteins of interest were found”. Further, in data set [1] (rats breathing ozone at 0.8 and 2.0 ppm), the organ damage entry is “Lung damage was produced”. Also, the organ toxicity entry in data set [2] is given as “toxic to the lungs”.
